Data as given in US20040019082A1, “Reversible infertility in male mice following oral administration of alkylated imino sugars: a non-hormonal approach to male contraception” (United Therapeutics Corporation, priority 2002, published 2004).
Like-named read-outs stand apart in the source and are kept apart here.

How the values were obtained:
[1] = test system: male C57BL/6 mice; assay: Mating assay, fertility of male mice; assay type: in vivo, mouse
Text: Treatment of mice—Male C57BL/6 mice were housed under standard non-sterile conditions. The mice were provided with water ad lib. and prior to drug administration were fed a diet of pelleted mouse chow (expanded Rat and Mouse Chow 3, SDS Ltd.) To administer the compounds of the present invention, the mice were fed a diet of powdered mouse chow (expanded Rat and Mouse Chow 1, ground, SDS Ltd.) containing either NB-DNJ, NB-DGJ, NN-6-MeDGJ, or DNJ. The diet and compound (both as dry solids) were mixed thoroughly, stored at room temperature, and used within 7 days of mixing.
(§1) Mating assays—To assess the fertility of male mice that were fed on a diet containing an iminosugar, a mating assay was used: typically six week old male C57BL/6 mice in groups of three were administered diet containing compound for five weeks (unless otherwise specified), after which each of them was caged with four untreated female C57BL/6 mice, and provided with standard pelleted chow. Females were at least 11 weeks old, and age-matched in each experiment. The male was removed from the females after 7 or 9 days, depending on the experiment; the females were monitored for vaginal mucous plugs, pregnancies, and, if any, litter sizes. To study any effect on female fertility six-week-old female C57BL/6 mice were treated with NB-DNJ for five weeks, after which each of them was caged with a non-treated age-matched male for four days.

[2] = test system: epididymal sperm; assay: Epididymal sperm count; assay type: in vivo, mouse; settings: at loss of fertility caused by the drug
[3] = test system: female C57BL/6 mice; assay: Mating assay, fertility of treated female mice; assay type: in vivo, mouse; settings: 1200 mg/kg/day for five weeks, four-day mating with untreated males, n=5
Protocol: as §1
Following a four-day mating period with untreated males, 100% of treated (n=5) as well as of non-treated females (n=4) became pregnant; these mice had 6.2±2.7 and 7.8±1.0 pups per litter, respectively.

[4] = Body, gonad and organ weights of treated mice; assay type: in vivo, mouse
[5] = test system: ganglioside GM1 on the surface of mouse splenocytes; settings: cited from earlier work
[6] = test system: epididymal spermatozoa; assay: Computer-assisted sperm motility analysis; assay type: in vivo, mouse; settings: mean ± SD, n ≧ 3
Protocol: Motility analysis. Mice were terminated by asphyxiation in CO2 and cervical dislocation, and caudae epididymides were removed with vasa deferentia. Spermatozoa were collected in pre-warmed M2 medium (Sigma) by stripping the vasa deferentia and by applying mild pressure to the caudae epididymides; the cells were incubated at 37° C. for 1 hour, and videographed using a Leica DM IRB microscope fitted with a JVC TK-1281 camera. Computer-assisted sperm motility analysis was performed using a Hobson Sperm Tracker (Hobson Vision Ltd., UK) at 50 frames per second. Motility parameters of each sperm sample were measured in triplicate, collecting data from 200 sperm tracks per determination.

[7] = test system: epididymal spermatozoa; assay: Electron microscopy of epididymal spermatozoa; assay type: in vivo, mouse
Protocol: For scanning electron microscopy, dried smears of murine spermatozoa were prepared as described above. Cells were fixed for 20 min in 4% paraformaldehyde in PBS, transferred to 70, 80 and 95% ethanol, critical-point dried in a Polaron CPD7501 instrument, gold-coated using a Nanotech Semprep2, and examined in a Hitachi S800 FEG-SEM at 3 kV. For transmission electronmicroscopy epididymal spermatozoa were collected in 1 mg/ml cold water soluble polyvinylalcohol in PBS, and spun for 10 min. at 600×g. Pelleted cells were fixed overnight at 4° C. with 1% glutaraldehyde, 0.2% picric acid in 0.2 M cacodylic acid pH 7.4, washed once in 0.1 M cacodylic acid pH 7.4, and stored in 70% ethanol. Cells were postfixed with 2% osmium letroxide, embedded in araldite, sectioned at 70 nm, stained with uranyl acetate/lead citrate, and examined with a JEOL JEM-100CX microscope at 80 kV.

[8] = test system: female mice of strain 129; assay: Fertility of treated female mice of strain 129; assay type: in vivo, mouse; settings: 2400 mg/kg day for 12 weeks, 15 week-old females, caged with untreated males
Protocol: NB-DNJ was administered at 2400 mg/kg day for 12 weeks to 15 week-old female mice of strain 129. After this, the drug was withdrawn and the females were caged with untreated males of strain 129. […] The mice in this experiment were heterozygous for a disruption in the gene encoding ceramide galactosyltransferase. These mice are phenotypically indistinguishable from wild-type 129 mice and reproduce normally (Coetzee et al., (1996), Cell, 86:209-219).

[9] = test system: testosterone, luteinising and follicle-stimulating hormones; assay: Endocrinological assays; assay type: in vivo, mouse
Protocol: Endocrinological assays—Following termination of mice by asphyxiation in CO2 and cervical dislocation, blood was obtained via cardiac puncture, which was allowed to clot at room temperature (RT). Serum was obtained by centrifugation, and stored at −80° C. until use. Testosterone, luteinising and follicle-stimulating hormones were measured by methods well-known in the art (Huhtaniemi, I., Nikula, H. & Rannikko, S. (1985) J Clin Endocrinol Metab 61, 698-704; Haavisto, A. M., Pettersson, K., Bergendahl, M., Perheentupa, A., Roser, J. F. & Huhtaniemi, I. (1993) Endocrinology 132, 1687-91; van Casteren, J. I., Schoonen, W. G. & Kloosterboer, H. J. (2000) Biol Reprod 62, 886-94.)

[10] = 5 mg/kg per day, five weeks in diet
[11] = 2400 mg/kg per day, taken off the drug after five weeks of treatment
[12] = highest dose (2400 mg/kg/day), n=10

SMILES: CCCCN1C[C@H](O)[C@@H](O)[C@H](O)[C@H]1CO [NB-DNJ, N-butyldeoxynojirimycin]
- fertility ([1]; 1 mg/kg per day, five weeks in diet): did not affect
- fertility (pregnancies per male) [1, 10]: reduced their fertility
- litter size [1, 10]: reduced
- fertility ([1]; 15 mg/kg per day, five weeks in diet): completely infertile
- fertility, capacity to sire normal-sized litters ([1]; 2400 mg/kg per day oral, one or two weeks of treatment, six-week old males): this capacity was maintained
- infertility, length of treatment needed ([1]; 2400 mg/kg per day oral, weekly increments): infertile after at least three weeks
- litter size after withdrawal [1, 11]: normal-sized litters
- regain of fertility after withdrawal [1, 11]: regained fertility in the fourth week
- fertility ([1]; 13 week old males, 2400 mg/kg per day for five weeks): complete sterility
- frequency of post-coital vaginal mucous plugs (mating behavior) ([1]; NB-DNJ dose range, five weeks in diet): not affected
- dose required for induced infertility ([1]; oral, male mice): at least 15 mg/kg/day
- epididymal sperm count [2]: not associated with a reduction
- females that became pregnant [3]: 100%
- pups per litter [3]: 6.2±2.7
- weights of testes and epididymal compartments ([4]; 1200 and 2400 mg/kg/day): decreased proportionally to body weight
- combined cauda epididymis/vas deferens weight [4, 12]: 43±7 % of control
- whole body weight [4, 12]: 60±5 % of control
- body or gonad weights ([4]; low dose, 15-150 mg/kg/day): did not affect
- reduction of ganglioside GM1 levels ([5]; 600 mg/kg per day): 10%
- reduction of ganglioside GM1 levels ([5]; 2400 mg/kg per day): 70%
- % motile ([6]; NB-DNJ 15 mg/kg/day): 26 ± 16%
- VCL, curvilinear velocity ([6]; NB-DNJ 15 mg/kg/day): 74 ± 31 μm/sec
- VSL, straight line velocity ([6]; NB-DNJ 15 mg/kg/day): 27 ± 9 μm/sec
- % motile ([6]; NB-DNJ 150 mg/kg/day): 15 ± 6%
- VCL, curvilinear velocity ([6]; NB-DNJ 150 mg/kg/day): 89 ± 31 μm/sec
- VSL, straight line velocity ([6]; NB-DNJ 150 mg/kg/day): 27 ± 8 μm/sec
- % motile ([6]; NB-DNJ 1200 mg/kg/day): 17 ± 7%
- VCL, curvilinear velocity ([6]; NB-DNJ 1200 mg/kg/day): 49 ± 17 μm/sec
- VSL, straight line velocity ([6]; NB-DNJ 1200 mg/kg/day): 18 ± 9 μm/sec
- % motile ([6]; NB-DNJ 2400 mg/kg/day): 9 ± 2%
- VCL, curvilinear velocity ([6]; NB-DNJ 2400 mg/kg/day): 28 ± 21 μm/sec
- VSL, straight line velocity ([6]; NB-DNJ 2400 mg/kg/day): 9 ± 5 μm/sec
- tails and mitochondria of epididymal spermatozoa ([7]; 1,200 mg/kg/day (FIG. 5)): induced a number of abnormalities
- acrosomal elements covering the nuclei, ultrastructural level ([7]; 1,200 mg/kg/day (FIGS. 5D-5F)): no typical acrosomal elements were seen
- average litter size [8]: 6 pups
- pregnancy after drug withdrawal [8]: All females quickly became pregnant
- serum testosterone, FSH, LH and testicular testosterone ([9]; 2400 mg/kg/day, p<0.001): significant reduction
- serum testosterone, FSH, LH and testicular testosterone ([9]; 15, 150 or 1200 mg/kg/day): did not change
